Assay results as given in article PMC12136031 (Science Advances, 2025).
Like-named read-outs stand apart in the source and are kept apart here.

Assays:
MAOA = molecular target: T1, MAOA (Homo sapiens, UniProt P21397); test: Safety47 Enzymatic MAOA; format: biochemical; conditions: Inhibitor; for Emax: read-out: Max Response; for IC50: read-out: RC50 (IC50)
T1 construct: purchased Eurofins Panlab (Safety47 Safety Scan, contract panel)
T1 sequence (P21397 1-527): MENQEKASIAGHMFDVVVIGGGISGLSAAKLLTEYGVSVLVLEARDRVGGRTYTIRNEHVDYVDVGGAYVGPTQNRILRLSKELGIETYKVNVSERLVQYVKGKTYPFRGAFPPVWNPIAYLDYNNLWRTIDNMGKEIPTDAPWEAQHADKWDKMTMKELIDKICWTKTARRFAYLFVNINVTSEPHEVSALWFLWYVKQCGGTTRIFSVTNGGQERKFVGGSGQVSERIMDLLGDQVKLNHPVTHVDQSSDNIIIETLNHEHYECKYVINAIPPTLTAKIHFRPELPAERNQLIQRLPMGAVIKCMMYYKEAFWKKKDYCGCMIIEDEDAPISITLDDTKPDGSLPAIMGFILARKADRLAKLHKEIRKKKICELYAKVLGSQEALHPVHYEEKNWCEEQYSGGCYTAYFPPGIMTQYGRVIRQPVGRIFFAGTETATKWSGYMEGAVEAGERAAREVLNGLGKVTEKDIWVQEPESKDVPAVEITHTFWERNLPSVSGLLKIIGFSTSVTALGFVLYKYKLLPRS

KvLQT1/minK = molecular target: T2, KvLQT1/minK (Homo sapiens, UniProt P51787); test: Safety47 Ion Channel KvLQT1/minK; format: cell-based; conditions: for Emax: read-out: Max Response; for IC50: read-out: RC50 (IC50); for EC50: read-out: RC50 (EC50)
T2 construct: purchased Eurofins Panlab (Safety47 Safety Scan, contract panel)

nAChR(a4/b2) = molecular target: T3, nAChR(a4/b2) (Homo sapiens, UniProt P17787+P43681); test: Safety47 Ion Channel nAChR(a4/b2); format: cell-based; conditions: for Emax: read-out: Max Response; for IC50: read-out: RC50 (IC50); for EC50: read-out: RC50 (EC50)
T3 construct: purchased Eurofins Panlab (Safety47 Safety Scan, contract panel)

ADRA1A = molecular target: T4, ADRA1A (Homo sapiens, UniProt P35348); test: Safety47 Calcium Flux ADRA1A; format: cell-based; conditions: for Emax: read-out: Max Response; for EC50: read-out: RC50 (EC50); for IC50: read-out: RC50 (IC50)
T4 construct: purchased Eurofins Panlab Safety47 Safety Scan
T4 sequence (P35348 1-466): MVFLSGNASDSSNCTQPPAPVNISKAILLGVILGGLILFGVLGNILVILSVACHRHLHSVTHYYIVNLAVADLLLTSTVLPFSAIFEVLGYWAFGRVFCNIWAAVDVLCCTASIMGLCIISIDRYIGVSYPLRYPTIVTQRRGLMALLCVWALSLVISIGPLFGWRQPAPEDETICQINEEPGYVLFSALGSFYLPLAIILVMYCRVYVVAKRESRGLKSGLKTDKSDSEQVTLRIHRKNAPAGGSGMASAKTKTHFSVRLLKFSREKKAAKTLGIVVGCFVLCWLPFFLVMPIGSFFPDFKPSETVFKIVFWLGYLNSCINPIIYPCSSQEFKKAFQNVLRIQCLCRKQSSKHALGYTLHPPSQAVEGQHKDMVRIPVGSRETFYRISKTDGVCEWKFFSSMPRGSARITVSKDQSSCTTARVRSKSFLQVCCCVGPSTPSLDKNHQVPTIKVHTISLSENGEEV

HTR3A = molecular target: T5, HTR3A (Homo sapiens, UniProt P46098); test: Safety47 Ion Channel HTR3A; format: cell-based; conditions: for Emax: read-out: Max Response; for IC50: read-out: RC50 (IC50); for EC50: read-out: RC50 (EC50)
T5 construct: purchased Eurofins Panlab (Safety47 Safety Scan, contract panel)
T5 sequence (P46098 24-478): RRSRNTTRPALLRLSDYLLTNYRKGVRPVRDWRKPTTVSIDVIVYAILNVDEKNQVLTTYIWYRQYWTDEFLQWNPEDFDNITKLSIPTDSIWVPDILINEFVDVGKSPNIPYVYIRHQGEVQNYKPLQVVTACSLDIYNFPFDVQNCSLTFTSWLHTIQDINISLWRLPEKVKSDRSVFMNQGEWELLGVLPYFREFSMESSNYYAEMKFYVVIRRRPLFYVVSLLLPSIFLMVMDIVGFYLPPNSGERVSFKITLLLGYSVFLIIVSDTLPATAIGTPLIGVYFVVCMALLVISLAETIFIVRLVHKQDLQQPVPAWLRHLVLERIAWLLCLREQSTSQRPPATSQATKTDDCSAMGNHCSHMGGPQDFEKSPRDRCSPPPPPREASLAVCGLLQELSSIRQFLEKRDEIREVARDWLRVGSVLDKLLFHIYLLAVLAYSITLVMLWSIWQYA

LCK = molecular target: T6, LCK (Homo sapiens, UniProt P06239); test: Safety47 Kinase Binding LCK; conditions: Kinases, Inhibitor; for Emax: read-out: Max Response; for IC50: read-out: RC50 (IC50)
T6 construct: purchased Eurofins Panlab (Safety47 Safety Scan, contract panel)

ADRB2 = molecular target: T7, ADRB2 (Homo sapiens, UniProt P07550); test: Safety47 cAMP ADRB2; format: cell-based; conditions: for Emax: read-out: Max Response; for EC50: read-out: RC50 (EC50); for IC50: read-out: RC50 (IC50)
T7 construct: purchased Eurofins Panlab Safety47 Safety Scan

ADRA2A = molecular target: T8, ADRA2A (Homo sapiens, UniProt P08913); test: Safety47 cAMP ADRA2A; format: cell-based; conditions: for Emax: read-out: Max Response; for EC50: read-out: RC50 (EC50); for IC50: read-out: RC50 (IC50)
T8 construct: purchased Eurofins Panlab Safety47 Safety Scan
T8 sequence (P08913 1-465): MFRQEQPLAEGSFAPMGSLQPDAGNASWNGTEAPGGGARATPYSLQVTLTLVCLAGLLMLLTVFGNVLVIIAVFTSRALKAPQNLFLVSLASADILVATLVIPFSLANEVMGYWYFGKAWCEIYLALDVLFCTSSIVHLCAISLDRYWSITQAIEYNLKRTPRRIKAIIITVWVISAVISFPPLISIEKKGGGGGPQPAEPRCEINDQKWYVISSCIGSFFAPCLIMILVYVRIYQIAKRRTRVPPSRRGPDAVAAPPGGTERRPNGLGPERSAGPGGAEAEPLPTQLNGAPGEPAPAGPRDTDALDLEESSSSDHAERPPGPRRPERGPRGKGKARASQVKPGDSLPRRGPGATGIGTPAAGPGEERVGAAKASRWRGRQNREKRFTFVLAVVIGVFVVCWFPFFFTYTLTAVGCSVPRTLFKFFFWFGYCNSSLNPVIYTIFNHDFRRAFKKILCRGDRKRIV

ADRB1 = molecular target: T9, ADRB1 (Homo sapiens, UniProt P08588); test: Safety47 cAMP ADRB1; format: cell-based; conditions: for Emax: read-out: Max Response; for EC50: read-out: RC50 (EC50); for IC50: read-out: RC50 (IC50)
T9 construct: purchased Eurofins Panlab Safety47 Safety Scan

HRH1 = molecular target: T10, HRH1 (Homo sapiens, UniProt P35367); test: Safety47 Calcium Flux HRH1; format: cell-based; conditions: for Emax: read-out: Max Response; for EC50: read-out: RC50 (EC50); for IC50: read-out: RC50 (IC50)
T10 construct: purchased Eurofins Panlab Safety47 Safety Scan
T10 sequence (P35367 whole entry): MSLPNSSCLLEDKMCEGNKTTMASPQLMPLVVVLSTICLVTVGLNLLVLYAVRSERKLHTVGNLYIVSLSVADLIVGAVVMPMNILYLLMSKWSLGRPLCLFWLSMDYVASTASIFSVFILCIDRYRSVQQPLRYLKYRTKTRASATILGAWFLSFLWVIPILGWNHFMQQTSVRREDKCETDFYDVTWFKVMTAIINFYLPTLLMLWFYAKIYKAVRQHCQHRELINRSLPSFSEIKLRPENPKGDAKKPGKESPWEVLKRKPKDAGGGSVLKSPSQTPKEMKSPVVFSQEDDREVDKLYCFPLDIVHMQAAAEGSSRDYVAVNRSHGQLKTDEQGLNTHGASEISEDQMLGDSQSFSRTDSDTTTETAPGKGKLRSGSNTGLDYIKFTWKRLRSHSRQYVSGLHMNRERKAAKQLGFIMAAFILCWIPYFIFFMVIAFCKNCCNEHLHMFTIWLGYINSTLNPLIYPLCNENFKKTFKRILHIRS

T7 sequence (P07550 whole entry): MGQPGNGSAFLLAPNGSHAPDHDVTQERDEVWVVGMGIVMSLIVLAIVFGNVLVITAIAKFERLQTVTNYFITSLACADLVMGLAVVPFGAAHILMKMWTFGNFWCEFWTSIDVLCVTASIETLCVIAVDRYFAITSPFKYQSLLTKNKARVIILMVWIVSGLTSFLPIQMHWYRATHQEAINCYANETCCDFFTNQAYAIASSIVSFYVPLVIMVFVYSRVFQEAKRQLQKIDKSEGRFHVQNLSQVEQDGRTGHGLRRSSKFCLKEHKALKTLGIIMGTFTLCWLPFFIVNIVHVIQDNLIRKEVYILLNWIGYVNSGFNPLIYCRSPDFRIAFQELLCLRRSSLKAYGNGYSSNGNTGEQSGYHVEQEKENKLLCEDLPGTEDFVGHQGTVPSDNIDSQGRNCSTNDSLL
T2 sequence (P51787 whole entry): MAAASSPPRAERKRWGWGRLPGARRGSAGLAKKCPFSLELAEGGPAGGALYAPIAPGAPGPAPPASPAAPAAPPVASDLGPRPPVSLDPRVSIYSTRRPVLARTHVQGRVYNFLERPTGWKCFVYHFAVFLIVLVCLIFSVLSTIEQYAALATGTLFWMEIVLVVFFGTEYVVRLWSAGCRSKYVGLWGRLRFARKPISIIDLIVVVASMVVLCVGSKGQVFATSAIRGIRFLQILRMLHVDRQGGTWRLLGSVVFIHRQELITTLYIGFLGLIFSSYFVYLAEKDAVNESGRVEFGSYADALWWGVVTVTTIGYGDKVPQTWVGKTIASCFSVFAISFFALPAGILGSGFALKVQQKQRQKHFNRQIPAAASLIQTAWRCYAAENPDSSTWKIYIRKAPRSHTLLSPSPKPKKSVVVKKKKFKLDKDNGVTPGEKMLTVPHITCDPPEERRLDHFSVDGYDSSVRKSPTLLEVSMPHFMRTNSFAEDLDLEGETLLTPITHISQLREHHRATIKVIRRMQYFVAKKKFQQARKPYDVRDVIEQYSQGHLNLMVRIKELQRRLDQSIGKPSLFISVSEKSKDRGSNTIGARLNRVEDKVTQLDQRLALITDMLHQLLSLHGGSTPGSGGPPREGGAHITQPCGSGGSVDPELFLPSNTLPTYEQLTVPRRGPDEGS
T9 sequence (P08588 whole entry): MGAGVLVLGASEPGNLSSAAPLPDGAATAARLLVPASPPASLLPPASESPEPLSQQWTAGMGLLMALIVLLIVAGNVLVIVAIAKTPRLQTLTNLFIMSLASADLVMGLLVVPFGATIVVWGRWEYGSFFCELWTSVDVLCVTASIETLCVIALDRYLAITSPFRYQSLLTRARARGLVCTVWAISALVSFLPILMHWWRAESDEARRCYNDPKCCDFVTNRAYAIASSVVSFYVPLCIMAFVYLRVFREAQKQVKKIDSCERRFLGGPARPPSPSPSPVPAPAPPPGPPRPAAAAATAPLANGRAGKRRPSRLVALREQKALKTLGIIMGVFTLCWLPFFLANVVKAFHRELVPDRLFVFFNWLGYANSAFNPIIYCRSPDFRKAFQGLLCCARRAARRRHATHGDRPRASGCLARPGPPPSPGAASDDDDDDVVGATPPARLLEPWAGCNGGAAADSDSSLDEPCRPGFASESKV
T3 sequence (P43681 29-627 limits assumed): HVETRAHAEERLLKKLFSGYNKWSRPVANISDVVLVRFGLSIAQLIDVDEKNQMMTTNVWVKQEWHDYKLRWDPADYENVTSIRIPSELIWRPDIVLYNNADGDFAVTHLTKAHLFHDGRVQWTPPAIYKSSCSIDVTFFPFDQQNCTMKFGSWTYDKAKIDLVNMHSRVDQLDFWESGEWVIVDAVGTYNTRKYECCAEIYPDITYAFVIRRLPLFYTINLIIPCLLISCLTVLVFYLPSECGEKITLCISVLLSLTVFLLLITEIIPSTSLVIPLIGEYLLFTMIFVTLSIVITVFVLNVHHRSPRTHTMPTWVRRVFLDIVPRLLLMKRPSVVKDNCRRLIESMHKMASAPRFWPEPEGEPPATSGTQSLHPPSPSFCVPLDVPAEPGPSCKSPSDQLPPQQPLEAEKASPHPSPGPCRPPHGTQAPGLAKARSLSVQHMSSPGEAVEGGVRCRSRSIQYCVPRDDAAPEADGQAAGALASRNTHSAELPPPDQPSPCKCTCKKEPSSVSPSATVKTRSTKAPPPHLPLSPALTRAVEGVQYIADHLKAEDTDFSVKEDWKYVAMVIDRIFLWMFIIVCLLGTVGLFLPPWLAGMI
T3 sequence (P17787 26-502): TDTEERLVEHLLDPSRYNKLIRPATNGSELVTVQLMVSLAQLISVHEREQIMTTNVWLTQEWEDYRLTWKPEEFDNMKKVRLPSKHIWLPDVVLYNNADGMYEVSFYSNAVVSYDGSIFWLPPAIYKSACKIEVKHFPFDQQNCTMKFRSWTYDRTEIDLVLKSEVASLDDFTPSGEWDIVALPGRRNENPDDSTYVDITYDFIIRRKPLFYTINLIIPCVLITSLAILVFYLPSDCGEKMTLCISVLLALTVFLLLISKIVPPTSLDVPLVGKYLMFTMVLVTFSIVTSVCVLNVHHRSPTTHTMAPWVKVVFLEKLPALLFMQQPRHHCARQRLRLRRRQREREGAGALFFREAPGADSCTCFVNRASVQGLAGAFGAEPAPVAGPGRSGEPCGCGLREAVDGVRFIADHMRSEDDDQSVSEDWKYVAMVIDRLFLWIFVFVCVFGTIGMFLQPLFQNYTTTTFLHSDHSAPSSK
T6 sequence (P06239 whole entry, species assumed): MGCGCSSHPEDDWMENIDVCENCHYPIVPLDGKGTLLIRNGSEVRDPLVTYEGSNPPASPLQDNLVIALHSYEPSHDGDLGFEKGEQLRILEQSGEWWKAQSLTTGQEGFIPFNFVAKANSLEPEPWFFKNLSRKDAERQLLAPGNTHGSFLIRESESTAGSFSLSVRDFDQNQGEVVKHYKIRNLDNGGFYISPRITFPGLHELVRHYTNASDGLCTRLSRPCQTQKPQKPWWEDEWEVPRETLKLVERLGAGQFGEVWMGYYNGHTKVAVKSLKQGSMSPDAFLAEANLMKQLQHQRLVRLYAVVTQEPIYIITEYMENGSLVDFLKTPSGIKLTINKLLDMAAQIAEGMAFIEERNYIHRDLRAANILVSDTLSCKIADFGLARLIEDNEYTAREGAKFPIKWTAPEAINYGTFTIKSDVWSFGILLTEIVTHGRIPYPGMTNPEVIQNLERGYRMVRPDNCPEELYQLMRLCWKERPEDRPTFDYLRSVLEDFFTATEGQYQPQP

Cl.c1ccc2c(Nc3ccc4[nH]ccc4c3)nc(-c3ccncc3)nc2c1 [BC18630, N-1H-indol-5-yl-2-pyridin-4-ylquinazolin-4-amine hydrochloride]
Emax (MAOA): 57%
IC50 (MAOA): > 10 µM
Emax (KvLQT1/minK; Blocker): 21.4%
IC50 (KvLQT1/minK; Blocker): > 10 µM
Emax (KvLQT1/minK; Opener): 6.18%
EC50 (KvLQT1/minK; Opener): > 10 µM
Emax (nAChR(a4/b2); Blocker): 12.4%
IC50 (nAChR(a4/b2); Blocker): > 10 µM
Emax (nAChR(a4/b2); Opener): 0%
EC50 (nAChR(a4/b2); Opener): > 10 µM
Emax (ADRA1A; Agonist): 0%
EC50 (ADRA1A; Agonist): > 10 µM
Emax (ADRA1A; Antagonist): 0%
IC50 (ADRA1A; Antagonist): > 10 µM
Curve Bottom (HTR3A; Blocker): 0
Curve Top (HTR3A; Blocker): 100
Hill (HTR3A; Blocker): 1.9
Emax (HTR3A; Blocker): 69.9%
IC50 (HTR3A; Blocker): 6.43 µM
Emax (HTR3A; Opener): 0%
EC50 (HTR3A; Opener): > 10 µM
Emax (LCK): 49.1%
IC50 (LCK): > 10 µM
Emax (ADRB2; Agonist): 0%
EC50 (ADRB2; Agonist): > 10 µM
Emax (ADRB2; Antagonist): 37.3%
IC50 (ADRB2; Antagonist): > 10 µM
Emax (ADRA2A; Agonist): 0%
EC50 (ADRA2A; Agonist): > 10 µM
IC50 (ADRA2A; Antagonist): > 10 µM
Emax (ADRB1; Agonist): 0.54%
EC50 (ADRB1; Agonist): > 10 µM
Emax (ADRB1; Antagonist): 44.8%
IC50 (ADRB1; Antagonist): > 10 µM
Emax (HRH1; Agonist): 0%
EC50 (HRH1; Agonist): > 10 µM
Emax (HRH1; Antagonist): 0%
IC50 (HRH1; Antagonist): > 10 µM

Cl.Fc1cc(Nc2nc(-c3ccncc3)nc3ncccc23)cc2cc[nH]c12 [BC18813, N-(7-fluoro-1H-indol-5-yl)-2-pyridin-4-ylpyrido[2,3-d]pyrimidin-4-amine hydrochloride]
Emax (MAOA): 22.2%
IC50 (MAOA): > 10 µM
Emax (KvLQT1/minK; Blocker): 12.9%
IC50 (KvLQT1/minK; Blocker): > 10 µM
Emax (KvLQT1/minK; Opener): 3.89%
EC50 (KvLQT1/minK; Opener): > 10 µM
Emax (nAChR(a4/b2); Blocker): 0%
IC50 (nAChR(a4/b2); Blocker): > 10 µM
Emax (nAChR(a4/b2); Opener): 0%
EC50 (nAChR(a4/b2); Opener): > 10 µM
Emax (ADRA1A; Agonist): 5.5%
EC50 (ADRA1A; Agonist): > 10 µM
Emax (ADRA1A; Antagonist): 1.12%
IC50 (ADRA1A; Antagonist): > 10 µM
Emax (HTR3A; Blocker): 0%
IC50 (HTR3A; Blocker): > 10 µM
Emax (HTR3A; Opener): 0.03%
EC50 (HTR3A; Opener): > 10 µM
Emax (LCK): 11.2%
IC50 (LCK): > 10 µM
Emax (ADRB2; Agonist): 0%
EC50 (ADRB2; Agonist): > 10 µM
Emax (ADRB2; Antagonist): 41.9%
IC50 (ADRB2; Antagonist): > 10 µM
Emax (ADRA2A; Agonist): 38.8%
EC50 (ADRA2A; Agonist): > 10 µM
Emax (ADRA2A; Antagonist): 0%
IC50 (ADRA2A; Antagonist): > 10 µM
Emax (ADRB1; Agonist): 2.22%
EC50 (ADRB1; Agonist): > 10 µM
Emax (ADRB1; Antagonist): 42.9%
IC50 (ADRB1; Antagonist): > 10 µM
Emax (HRH1; Agonist): 1.49%
EC50 (HRH1; Agonist): > 10 µM
Emax (HRH1; Antagonist): 6.52%
IC50 (HRH1; Antagonist): > 10 µM
